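Where inhibition never reached the appropriate level, the endpoint shown equals the highest concentration tested. Otherwise, values were interpolated linearly from a five-concentration, 48-hour dose response in 96-well plates. At the GI50, growth is halved. TGI denotes the concentration required for complete inhibition of growth.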
What was measured:
Test in all cases: DTP human tumour cell line panel, 48 h
M14 melanoma = system: M14 melanoma
HCT-116 colon = system: HCT-116 colon
KM12 colon = system: KM12 colon
MOLT-4 leukemia = system: MOLT-4 leukemia
OVCAR-5 ovarian = system: OVCAR-5 ovarian
CCRF-CEM leukemia = system: CCRF-CEM leukemia
K-562 leukemia = system: K-562 leukemia
A549 NSCLC = system: A549 NSCLC
SK-OV-3 ovarian = system: SK-OV-3 ovarian
BT-549 breast = system: BT-549 breast

Row | SMILES | TGI (M14 melanoma) | TGI (HCT-116 colon) | TGI (KM12 colon) | TGI (MOLT-4 leukemia) | TGI (OVCAR-5 ovarian) | TGI (CCRF-CEM leukemia) | TGI (K-562 leukemia) | TGI (A549 NSCLC) | TGI (SK-OV-3 ovarian) | TGI (BT-549 breast) | GI50 (M14 melanoma) | GI50 (HCT-116 colon) | GI50 (KM12 colon) | GI50 (MOLT-4 leukemia) | GI50 (OVCAR-5 ovarian) | GI50 (CCRF-CEM leukemia) | GI50 (SK-OV-3 ovarian) | GI50 (A549 NSCLC) | GI50 (BT-549 breast) | GI50 (K-562 leukemia)
1 | COc1nc2c(c(O)c(C)c(=O)n2OC2OCC(OC(C)=O)C(OC(C)=O)C2OC(C)=O)c(=O)n1C (centres undefined) | > 100 µM | > 100 µM | > 100 µM | > 100 µM | > 100 µM | > 100 µM | > 100 µM | > 100 µM | – | – | – | – | – | – | – | – | – | – | – | –
2 | O=c1cc(O)cc2n1CCC2 | > 100 µM | > 100 µM | > 100 µM | > 100 µM | > 100 µM | > 100 µM | > 100 µM | > 100 µM | > 100 µM | – | – | – | – | – | – | – | – | – | – | –
3 | COC(=O)/C=C(/C(=O)OC)C1(C)c2cc(C(=O)OC)c(C(=O)OC)c(N)c2C(=N)N1c1ccccc1 (centres undefined) | 33.6 µM | 29.3 µM | 32.9 µM | 46.2 µM | > 100 µM | 50.4 µM | 51.7 µM | > 100 µM | > 100 µM | – | – | – | – | – | – | – | – | – | – | –
4 | O=C(NC1C(=O)NNC1c1cccc([N+](=O)[O-])c1)c1ccccc1 (centres undefined) | > 100 µM | > 100 µM | > 100 µM | > 100 µM | > 100 µM | > 100 µM | – | > 100 µM | – | – | – | – | – | – | – | – | – | – | – | –
5 | COC(=O)C1C(=O)O[C@@H](c2ccc3c(c2)OCO3)C1C(=O)OC (mixture of isomers) | > 100 µM | > 100 µM | > 100 µM | > 100 µM | > 100 µM | > 100 µM | > 100 µM | > 100 µM | > 100 µM | – | – | – | – | – | – | – | – | – | – | –
6 | O=C1CC(c2ccccc2)Oc2ccccc21 (centres undefined) | > 100 µM | > 100 µM | > 100 µM | 34.4 µM | – | 57.4 µM | 32.6 µM | – | > 100 µM | 42.1 µM | – | – | – | – | – | – | – | – | – | –
7 | CCN(CC)CCCNc1ccc(C)c2sc3ccccc3c(=O)c12 | 0.401 µM | 1.59 µM | 2.74 µM | 1.35 µM | 2.76 µM | 2.82 µM | – | 1.99 µM | 4.82 µM | 11.1 µM | 0.193 µM | 0.407 µM | 1.11 µM | 0.384 µM | 1.26 µM | 0.96 µM | 1.51 µM | 0.554 µM | 1.83 µM | –
8 | CC(=O)O[C@H]1C(=O)[C@@]2(C)C([C@H](OC(=O)c3ccccc3)[C@]3(O)C[C@H](OC(=O)[C@H](O)[C@@H](NC(=O)c4ccccc4)c4ccccc4)C(C)=C1C3(C)C)[C@]1(OC(C)=O)CO[C@@H]1C[C@@H]2O (some centres undefined) | – | > 50 µM | > 50 µM | > 37.2 µM | > 50 µM | > 50 µM | > 50 µM | > 50 µM | > 50 µM | > 50 µM | – | < 0.005 µM | < 0.005 µM | 0.0152 µM | 0.0226 µM | 0.0141 µM | – | < 0.005 µM | 0.0212 µM | 0.00596 µM
9 | CCOC(=O)c1nc(C)oc1C(F)(F)F | > 100 µM | > 100 µM | > 100 µM | > 100 µM | > 100 µM | > 100 µM | > 100 µM | > 100 µM | > 100 µM | – | – | – | – | – | – | – | – | – | – | –
10 | Cc1ccc2c(c1)CN1c3ccc(C)cc3CN2C1c1ccccc1O | > 100 µM | > 100 µM | > 100 µM | > 100 µM | > 100 µM | > 100 µM | > 100 µM | > 100 µM | > 100 µM | – | – | – | – | – | – | – | – | – | – | –
11 | O=[N+]([O-])c1ccc(Cl)c2c([N+](=O)[O-])cccc12 | – | 5.32 µM | > 10 µM | > 10 µM | – | > 10 µM | > 10 µM | > 10 µM | 7.48 µM | – | – | – | – | – | – | – | – | – | – | –
12 | CCCCCCCCCCCC[N+]1(CCCCCCCCCCCC)CCCC(C)C1 (centres undefined) | – | 1.21 µM | – | – | 2.29 µM | – | – | 0.736 µM | – | 3.25 µM | – | 0.185 µM | – | – | 1.06 µM | – | – | 0.172 µM | 0.817 µM | –
13 | C[C@]12Cc3cn[nH]c3C(=O)C1CC[C@@H]1C2CC[C@@]2(C)C1CC[C@@H]2O (some centres undefined) | > 100 µM | > 100 µM | > 100 µM | > 100 µM | > 100 µM | > 100 µM | > 100 µM | > 100 µM | > 100 µM | – | – | – | – | – | – | – | – | – | – | –
14 | N#CC(C(=O)C(=O)Nc1c(Cl)cccc1Cl)c1ccccc1 (centres undefined) | > 100 µM | – | > 100 µM | > 100 µM | – | > 100 µM | > 100 µM | > 100 µM | > 100 µM | – | > 100 µM | – | > 100 µM | > 100 µM | > 100 µM | > 100 µM | > 100 µM | > 100 µM | – | > 100 µM
15 | O=C(NC12CC3CCC1CC(C3)C2)[C@@H]1CCCN1C(=O)OCc1ccccc1 (some centres undefined) | > 100 µM | > 100 µM | > 100 µM | > 100 µM | > 100 µM | > 100 µM | > 100 µM | > 100 µM | > 100 µM | – | – | – | – | – | – | – | – | – | – | –
16 | O=C(Nc1ccc(N=C=S)cc1Cl)c1cc(Br)cc(Br)c1O | > 100 µM | 31.7 µM | 55.3 µM | 69.4 µM | 50.9 µM | – | 97.1 µM | 69.7 µM | > 100 µM | – | – | – | – | – | – | – | – | – | – | –
17 | Nc1ncnc2c1N=C(c1ccc3c(c1)OCO3)CC(c1ccc(Cl)cc1)N2 (centres undefined) | > 100 µM | 22.5 µM | 30.7 µM | > 100 µM | 90.7 µM | – | > 100 µM | 30.1 µM | > 100 µM | – | 25.5 µM | 10.7 µM | 2.03 µM | 5.85 µM | 18.3 µM | – | 92.6 µM | 11.6 µM | – | 4.27 µM
18 | Nc1ncc(Cc2ccc3c(c2)OCO3)c(N)n1 | > 100 µM | > 100 µM | > 100 µM | > 100 µM | > 100 µM | > 100 µM | > 100 µM | > 100 µM | > 100 µM | – | – | – | – | – | – | – | – | – | – | –
19 | N#C/C(=C\c1cc(OCc2ccccc2)c(OCc2ccccc2)cn1)C(N)=O | > 100 µM | > 100 µM | > 100 µM | 52.4 µM | > 100 µM | > 100 µM | > 100 µM | > 100 µM | > 100 µM | – | – | – | – | – | – | – | – | – | – | –
20 | O=[N+]([O-])c1ccccc1C1SCc2nc3ccccc3n21 (centres undefined) | – | – | > 100 µM | > 100 µM | – | > 100 µM | > 100 µM | > 100 µM | > 100 µM | – | – | – | – | – | – | – | – | – | – | –
